Results: the NIST ThermoML archive (doi:10.1016/j.fluid.2017.03.015)
Numbers after ± are expanded uncertainties.

Settings: Crystal; visual observation

Structure (SMILES) | Normal melting temperature
CCC(=O)[O-].C[N+](C)(C)CCO [cholinium propanoate] | 9.42 ± 0.41 °C
CCCC[N+](CCCC)(CCCC)CCCC.[Cl-] [tetrabutylammonium chloride] | 69.67 ± 0.41 °C
CCCC(=O)[O-].C[N+](C)(C)CCO [choline butanoate] | 42.83 ± 0.41 °C
CCn1cc[n+](C)c1.[Cl-] [1-ethyl-3-methylimidazolium chloride] | 77.27 ± 0.41 °C
CCCC[P+](CCCC)(CCCC)CCCC.[Cl-] [tetrabutylphosphonium chloride] | 66.31 ± 0.41 °C
C[N+](C)(C)CCO.O=S(=O)([N-]S(=O)(=O)C(F)(F)F)C(F)(F)F [choline bis(trifluoromethylsulfonyl)imide] | 32.50 ± 0.41 °C
CCCCCCCCC(C[N+](C)(C)Cc1ccccc1)C(C)O.[Cl-] (stereo not given) [benzyldimethyl-2-(1-hydroxyethyl)decylammonium chloride] | 78.27 ± 0.41 °C
CCCC[N+]1(C)CCCC1.[Cl-] [1-butyl-1-methylpyrrolidinium chloride] | 199.83 ± 0.41 °C
C[n+]1ccn(CCO)c1.[Cl-] [1-(2-hydroxyethyl)-3-methyl-1H-imidazolium chloride] | 85.73 ± 0.41 °C
CC(=O)[O-].C[N+](C)(C)CCO [choline acetate] | 89.47 ± 0.41 °C
